# How the values were obtained:
# Type in all cases: cell-based, murine and human
# Conditions in all cases: 20-24 hours treatment
# PPAR-alpha = target: T1, PPAR-alpha (UniProt Q07869); assay: Transient transfection transactivation assay in CV-1 cells, GAL4-PPAR-alpha chimera, luciferase reporter
# T1 sequence (Q07869 1-468): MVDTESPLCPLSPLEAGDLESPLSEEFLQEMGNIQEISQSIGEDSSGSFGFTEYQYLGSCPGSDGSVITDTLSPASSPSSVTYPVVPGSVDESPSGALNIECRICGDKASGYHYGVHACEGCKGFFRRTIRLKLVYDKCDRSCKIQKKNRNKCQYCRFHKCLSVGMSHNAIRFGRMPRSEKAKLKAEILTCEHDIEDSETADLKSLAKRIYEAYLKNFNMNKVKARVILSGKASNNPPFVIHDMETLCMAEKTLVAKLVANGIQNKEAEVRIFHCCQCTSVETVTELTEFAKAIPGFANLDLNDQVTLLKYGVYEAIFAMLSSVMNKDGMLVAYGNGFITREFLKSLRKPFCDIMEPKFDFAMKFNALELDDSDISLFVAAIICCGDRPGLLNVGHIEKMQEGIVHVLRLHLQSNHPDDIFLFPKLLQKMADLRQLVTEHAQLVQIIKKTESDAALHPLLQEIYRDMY
# From the text: (§1) Compounds may be screened for functional potency in transient transfection assays in CV-1 cells for their ability to activate the PPAR subtypes (transactivation assay). A previously established chimeric receptor system was utilized to allow comparison of the relative transcriptional activity of the receptor subtypes on the same synthetic response element and to prevent endogenous receptor activation from complicating the interpretation of results. See, for example, Lehmann, J. M.; Moore, L. B.; Smith-Oliver, T. A: Wilkinson, W. O.; Willson, T. M.; Kliewer, S. A., An antidiabetic thiazolidinedione is a high affinity ligand for peroxisome proliferator-activated receptor […], J. Biol. Chem., 1995, 270, 12953-6. The ligand binding domains for murine and human PPAR-alpha, PPAR-gamma, and PPAR-delta are each fused to the yeast transcription factor GAL4 DNA binding domain. CV-1 cells were transiently transfected with expression vectors for the respective PPAR chimera along with a reporter construct containing four or five copies of the GAL4 DNA binding site driving expression of luciferase. After 8-16 h, the cells are replated into multi-well assay plates and the media is exchanged to phenol-red free DME medium supplemented with 5% delipidated coif serum. 4 hours after replating, cells were treated with either compounds or 1% DMSO for 20-24 hours. Luciferase activity was then assayed with Britelite (Perkin Elmer) following the manufacturer's protocol and measured with either the Perkin Elmer Viewlux or Molecular Devices Acquost (see, for example. Kliewer, S. A., et. al. Cell 1995, 83, 813-819). Rosiglitazone is used as a positive control in the PPARγ assay. Wy-14643 and GW7647 is used as a positive control in the […]. GW50156 is used as the positive control in the PPARδ assay.
# Examples 1-20 were assayed to measure their biological activity with respect to their efficacy for modulating PPAR-alpha, PPAR-gamma, and PPAR-delta. EC50 values are set forth below in Table 1.
# PPAR-delta = target: T2, PPAR-delta (UniProt Q03181); assay: Transient transfection transactivation assay in CV-1 cells, GAL4-PPAR-delta chimera, luciferase reporter
# T2 sequence (Q03181 1-441): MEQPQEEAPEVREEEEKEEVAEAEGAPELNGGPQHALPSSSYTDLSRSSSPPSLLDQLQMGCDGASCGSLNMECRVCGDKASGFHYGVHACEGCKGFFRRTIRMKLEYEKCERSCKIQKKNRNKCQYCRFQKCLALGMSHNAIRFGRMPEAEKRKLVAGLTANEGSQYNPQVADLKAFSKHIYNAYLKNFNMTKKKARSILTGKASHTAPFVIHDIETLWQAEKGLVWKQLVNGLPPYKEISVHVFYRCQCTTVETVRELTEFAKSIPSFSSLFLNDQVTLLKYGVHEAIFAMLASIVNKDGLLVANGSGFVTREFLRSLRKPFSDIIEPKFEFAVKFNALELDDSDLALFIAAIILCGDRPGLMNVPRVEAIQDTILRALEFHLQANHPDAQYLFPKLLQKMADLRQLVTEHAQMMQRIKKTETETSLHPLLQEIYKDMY
# From the text: as §1
# (§2) EC50 values are set forth below in Table 1.
# PPAR-gamma = target: T3, PPAR-gamma (UniProt P37231); assay: Transient transfection transactivation assay in CV-1 cells, GAL4-PPAR-gamma chimera, luciferase reporter
# T3 sequence (P37231 1-505): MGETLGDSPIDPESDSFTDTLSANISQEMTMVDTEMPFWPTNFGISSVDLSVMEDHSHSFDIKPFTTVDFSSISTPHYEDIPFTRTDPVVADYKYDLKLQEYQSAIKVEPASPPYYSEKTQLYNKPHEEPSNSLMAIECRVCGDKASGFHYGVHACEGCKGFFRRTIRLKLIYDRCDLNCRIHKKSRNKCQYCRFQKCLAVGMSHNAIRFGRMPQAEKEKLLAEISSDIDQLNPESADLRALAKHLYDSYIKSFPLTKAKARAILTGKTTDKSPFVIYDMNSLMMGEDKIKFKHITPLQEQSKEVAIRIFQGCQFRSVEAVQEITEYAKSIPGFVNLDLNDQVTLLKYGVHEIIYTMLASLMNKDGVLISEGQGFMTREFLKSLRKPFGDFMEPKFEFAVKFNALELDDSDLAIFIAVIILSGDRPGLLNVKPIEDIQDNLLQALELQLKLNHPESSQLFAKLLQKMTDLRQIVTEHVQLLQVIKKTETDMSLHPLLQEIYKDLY
# From the text: as §1, §2
SMILES,EC50 (PPAR-alpha) [µM],EC50 (PPAR-delta) [µM],EC50 (PPAR-gamma) [µM]
"CCCCCN(CCNS(=O)(=O)c1cccc2c1CC(C(=O)O)C2)Cc1ccc(OC(F)(F)F)cc1 (stereo not drawn) [Example 3, 4-{2-[Pentyl-(4-trifluoromethoxy-benzyl)-amino]-ethylsulfamoyl}-indan-2-carboxylic acid]",< 5,< 5,< 5
"CCCc1c(OCCN(C)S(=O)(=O)c2cccc3c2CC(C(=O)O)C3)ccc2c(C(F)(F)F)noc12 (stereo not drawn) [Example 14, 4-(N-methyl-N-(2-(7-propyl-3-(trifluoromethyl)benzo[d]isoxazol-6-yloxy)ethyl)sulfamoyl)-2,3-dihydro-1H-indene-2-carboxylic acid]",< 5,< 5,< 5
Cc1ccc(S(=O)(=O)N(C)CCON=C(c2ccc(C(F)(F)F)cc2)c2ccc(C(F)(F)F)cc2)cc1CC(=O)O [Example 16],< 5,< 5,< 5
"CN(CCON=C(c1ccc(OC(F)(F)F)cc1)c1ccc(OC(F)(F)F)cc1)S(=O)(=O)c1cccc2c1CC(C(=O)O)C2 (stereo not drawn) [Example 19, 4-(N-(2-(bis(4-(trifluoromethoxy)phenyl)methyleneaminooxy)ethyl)-N-methylsulfamoyl)-2,3-dihydro-1H-indene-2-carboxylic acid]",> 100,< 5,< 5
"CCCCN(CCNS(=O)(=O)c1cccc2c1CC(C(=O)O)C2)Cc1ccc(OC(F)(F)F)cc1 (stereo not drawn) [Example 7, 4-{2-[Butyl-(4-trifluoromethoxy-benzyl)-amino]-ethylsulfamoyl}-indan-2-carboxylic acid]",< 5,< 5,< 5
"CCN(CCNS(=O)(=O)c1cc(C)cc(CC(=O)O)c1)Cc1ccc(OC(F)(F)F)cc1 [Example 5, (3-{2-[Ethyl-(4-trifluoromethoxy-benzyl}-amino]-ethylsulfamoyl)-5-methyl-phenyl)-acetic acid]",5 to 100,< 5,< 5
Cc1ccc(C(=NOCCN(C)S(=O)(=O)c2ccc(C)c(CC(=O)O)c2)c2ccc(C)cc2)cc1 [Example 20],< 5,< 5,< 5
"CCCc1c(OCCN(C)S(=O)(=O)c2cccc3c2CC(C(=O)O)C3)ccc(C(C)=O)c1O (stereo not drawn) [Example 9, 4-(N-(2-(4-Acetyl-3-hydroxy-2-propylphenoxy)ethyl)-N-methylsulfamoyl)-2,3-dihydro-1H-indene-2-carboxylic acid]",> 100,< 5,< 5
"CCc1cnc(N(CCNS(=O)(=O)c2cc(C)cc(CC(=O)O)c2)Cc2ccc(OC(F)(F)F)cc2)nc1 [Example 2, (3-{2-[(Ethyl-pyrimidin-2-yl)-(4-trifluoromethoxy-benzyl)-amino]-ethylsulfamoyl)-5-methyl-phenyl)-acetic acid]",< 5,< 5,< 5
CCN(CCNS(=O)(=O)c1cccc2c1CC(C(=O)O)C2)Cc1ccc(OC(F)(F)F)cc1 (stereo not drawn) [Example 8],< 5,< 5,< 5
"Cc1ccc(C(=NOCCN(C)S(=O)(=O)c2cccc3c2CC(C(=O)O)C3)c2ccc(C)cc2)cc1 (stereo not drawn) [Example 15, 4-(N-(2-(di-p-tolylmethyleneaminooxy)ethyl)-N-methylsulfamoyl)-2,3-dihydro-1H-indene-2-carboxylic acid]",> 100,< 5,> 100
CCCCCN(CCNS(=O)(=O)c1cc(C)cc(CC(=O)O)c1)Cc1ccc(OC(F)(F)F)cc1 [Example 4],< 5,< 5,< 5
"CN(CCON=C(c1ccc(C(F)(F)F)cc1)c1ccc(C(F)(F)F)cc1)S(=O)(=O)c1cccc2c1CC(C(=O)O)C2 (stereo not drawn) [Example 18, 4-(N-(2-(bis(4-(trifluoromethyl)phenyl)methyleneaminooxy)ethyl)-N-methylsulfamoyl)-2,3-dihydro-1H-indene-2-carboxylic acid]",> 100,< 5,< 5
"CCCCN(CCNS(=O)(=O)c1cc(C)cc(CC(=O)O)c1)Cc1ccc(OC(F)(F)F)cc1 [Example 6, (3-{2-[Butyl-(4-trifluoromethoxy-benzyl)-amino]-ethylsulfamoyl}-5-methyl-phenyl)-acetic acid]",< 5,< 5,< 5
"CCc1cnc(N(CCNS(=O)(=O)c2cccc3c2CC(C(=O)O)C3)Cc2ccc(OC(F)(F)F)cc2)nc1 (stereo not drawn) [Example 1, 4-{2-[(5-Ethyl-pyrimidin-2-yl)-(4-trifluoromethoxy-benzyl}-amino]-ethylsulfamoyl)-indan-2-carboxylic acid]",< 5,< 5,< 5
CCCc1c(OCCN(C)S(=O)(=O)c2ccc3c(c2)CC(C(=O)O)C3)ccc(C(C)=O)c1O (stereo not drawn) [Example 13],> 100,> 100,5 to 100
"CCCc1c(OCCN(C)S(=O)(=O)c2ccc3c(c2)C(C(=O)O)CC3)ccc(C(C)=O)c1O (stereo not drawn) [Example 10, 6-(N-(2-(4-Acetyl-3-hydroxy-2-propylphenoxy)ethyl)-N-methylsulfamoyl)-2-dihydro-1H-indene-1-carboxylic acid]",< 5,< 5,< 5
"CCCc1c(OCCNS(=O)(=O)c2ccc3c(c2)CC(C(=O)O)C3)ccc(C(C)=O)c1O (stereo not drawn) [Example 12, 5-(N-(2-(4-Acetyl-3-hydroxy-2-propylphenoxy)ethyl)sulfamoyl)-2,3-dihydro-1H-indene-2-carboxylic acid]",5 to 100,5 to 100,5 to 100
"CCCc1c(OCCNS(=O)(=O)c2cccc3c2CC(C(=O)O)C3)ccc(C(C)=O)c1O (stereo not drawn) [Example 11, 4-(N-(2-(4-Acetyl-3-hydroxy-2-propylphenoxy)ethyl)sulfamoyl)-2,3-dihydro-1H-indene-2-carboxylic acid]",> 100,< 5,< 5

# Source: patent publication US20080287477A1, “Novel Compounds as Modulators of Ppar” (KALYPSYS, INC., priority 2006, published 2008)
